Experimental data reported in US8435561B2 (Besins Healthcare Luxembourg Sarl, priority 2001, dated 2013).

Assay: Comparative particle size study (Mastersizer 2000 laser particle sizer)
Assay type: physicochemical
Conditions: in sesame seed oil, olive oil, colza oil or almond oil, compared to that obtained in peanut oil

size distribution of progesterone: comparable
Structure (SMILES): CC(=O)[C@H]1CC[C@H]2[C@@H]3CCC4=CC(=O)CC[C@]4(C)[C@H]3CC[C@]12C [Micronized Progesterone, progesterone]
